Source: patent US12384776B2, “Compounds and uses thereof” (Foghorn Therapeutics Inc., priority 2019, dated 2025)

biological target: Nanoluciferase-BRD9 fusion protein (3×FLAG-NLuc-BRD9) in SYO-1 cells (Homo sapiens (Human), UniProt Q9H8M2); assay: SYO1 BRD9 NanoLuc degradation assay; format: cell-based; details: SYO-1 cells expressing 3×FLAG-NLuc-BRD9, 6 hours incubation, top dose 1 μM
Procedure: Procedure: A stable SYO-1 cell line expressing 3×FLAG-NLuc-BRD9 was generated. On day 0 cells were seeded in 30 μL media into each well of 384-well cell culture plates. The seeding density was 8000 cells/well. On day 1, cells were treated with 30 nL DMSO or 30 nL of 3-fold serially DMSO-diluted compounds (10 points in duplicates with 1 μM as final top dose). Subsequently plates were incubated for 6 hours in a standard tissue culture incubator and equilibrated at room temperature for 15 minutes. Nanoluciferase activity was measured by adding 15 μL of freshly prepared Nano-Glo Luciferase Assay Reagent (Promega N1130), shaking the plates for 10 minutes and reading the bioluminescence using an EnVision reader.
Results: The Inhibition % was calculated using the following formula: % Inhibition=100×(LumHC−LumSample)/(LumHC−LumLC). DMSO treated cells are employed as High Control (HC) and 1 μM of a known BRD9 degrader standard treated cells are employed as Low Control (LC).

Nanoluciferase-BRD9 fusion protein (3×FLAG-NLuc-BRD9) in SYO-1 cells, sequence (Q9H8M2 whole entry, the tested form may be a part): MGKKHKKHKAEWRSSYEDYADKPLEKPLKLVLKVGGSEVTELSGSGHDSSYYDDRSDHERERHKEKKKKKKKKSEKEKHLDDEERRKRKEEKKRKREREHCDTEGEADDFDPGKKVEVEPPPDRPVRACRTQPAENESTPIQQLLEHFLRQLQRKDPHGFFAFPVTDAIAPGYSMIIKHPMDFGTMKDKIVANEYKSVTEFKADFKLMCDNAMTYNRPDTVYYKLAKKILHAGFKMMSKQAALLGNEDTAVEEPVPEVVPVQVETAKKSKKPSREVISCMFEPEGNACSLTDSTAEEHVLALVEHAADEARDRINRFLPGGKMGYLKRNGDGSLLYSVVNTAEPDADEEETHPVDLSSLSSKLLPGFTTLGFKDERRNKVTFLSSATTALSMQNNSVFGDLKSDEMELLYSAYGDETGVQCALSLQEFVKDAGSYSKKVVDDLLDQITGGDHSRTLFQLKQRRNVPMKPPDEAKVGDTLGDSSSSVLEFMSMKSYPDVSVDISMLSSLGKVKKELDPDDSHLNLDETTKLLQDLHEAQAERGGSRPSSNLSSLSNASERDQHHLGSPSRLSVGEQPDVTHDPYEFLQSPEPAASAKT

| Structure (SMILES) | IC50 [nM] |
| --- | --- |
| CNC(=O)N1CCc2c(-c3cc(OC)c(CN4CCC(CCN5CCN(c6ccc(-c7cnn(C8CCC(=O)NC8=O)c7)cc6)CC5)CC4)c(OC)c3)cn(C)c(=O)c2C1 (centres unmarked) [Compound D76] | < 10 |
| CNC(=O)N1CCc2c(-c3cc(OC)c(CC4CCN(CCN5CCN(c6ccc7c(c6)C(=O)N(C6CCC(=O)NC6=O)C7=O)CC5)CC4)c(OC)c3)cn(C)c(=O)c2C1 (centres unmarked) [Compound D130] | < 10 |
| COc1cc(-c2cn(C)c(=O)c3c2CCN(C(=O)NC2CC4CC2CN4CCOc2ccc4c(c2)C(=O)N(C2CCC(=O)NC2=O)C4=O)C3)cc(OC)c1CN(C)C (centres unmarked) [Compound D274] | 100 to 1000 |
| CNC(=O)N1CCc2c(-c3cc(OC)c(CN4CC(C(=O)N5CC6(CCN(c7ccc8c(c7)C(=O)N(C7CCC(=O)NC7=O)C8=O)C6)C5)C4)c(OC)c3)cn(C)c(=O)c2C1 (centres unmarked) [Compound D144] | 10 to 100 |
| CNC(=O)N1CCc2c(-c3cc(OC)c(CN4CCC(CN5CCC6(CC5)CN(c5ccc7c(c5)CN(C5CCC(=O)NC5=O)C7=O)C6)CC4)c(OC)c3)cn(C)c(=O)c2C1 (centres unmarked) [Compound D56] | < 10 |
| CNC(=O)N1CCc2c(-c3cc(OC)c(CN4CCN(CCC5CCN(c6ccc7c(c6)C(=O)N(C6CCC(=O)NC6=O)C7=O)CC5)CC4C(F)F)c(OC)c3)cn(C)c(=O)c2C1 (centres unmarked) [Compound D104] | < 10 |
| CNC(=O)N1CCc2c(-c3cc(OC)c(CN4CC(CCN5CCN(c6ccc7c(c6)C(=O)N(C6CCC(=O)NC6=O)C7=O)CC5)C4)c(OC)c3)cn(C)c(=O)c2C1 (centres unmarked) [Compound D258] | 100 to 1000 |
| CNC(=O)N1CCc2c(c(-c3cc(OC)c(CN(C)CCOCCN4CCN(c5ccc6c(c5)C(=O)N(C5CCC(=O)NC5=O)C6=O)CC4)c(OC)c3)cn(C)c2=O)C1 (centres unmarked) [Compound D296] | ≥ 1000 |
| CNC(=O)N1CCc2c(-c3cc(OC)c(CN4CC(S(=O)(=O)NCCOc5ccc6c(c5)C(=O)N(C5CCC(=O)NC5=O)C6=O)C4)c(OC)c3)cn(C)c(=O)c2C1 (centres unmarked) [Compound D279] | 100 to 1000 |
| CNC(=O)N1CCc2c(-c3cc(OC)c(CN4CC(CN5CCN(c6ccc7c(c6)C(=O)N(C6CCC(=O)NC6=O)C7=O)CC5)C4)c(OC)c3)cn(C)c(=O)c2C1 (centres unmarked) [Compound D168] | 10 to 100 |
| CNC(=O)N1CCc2c(-c3cc(OC)c(CN4CCC(CN(C)C5CCN(c6ccc7c(c6)C(=O)N(C6CCC(=O)NC6=O)C7=O)CC5)CC4)c(OC)c3)cn(C)c(=O)c2C1 (centres unmarked) [Compound D195] | < 10 |
| CNC(=O)N1CCc2c(-c3cc(OC)c(CN4CCN(CCN5CCC(c6ccc7c(c6)C(=O)N(C6CCC(=O)NC6=O)C7=O)CC5)CC4)c(OC)c3)cn(C)c(=O)c2C1 (centres unmarked) [Compound D117] | < 10 |
| COc1cc(-c2cn(C)c(=O)c3c2CCN(C(=O)NCCCN2CCC(OC4CCN(c5ccc6c(c5)C(=O)N(C5CCC(=O)NC5=O)C6=O)CC4)C2)C3)cc(OC)c1CN(C)C (centres unmarked) [Compound D225] | 10 to 100 |
| CNC(=O)N1CCc2c(-c3cc(OC)c(CN4CCC(CN5CCN(c6ccc7c(c6)C(=O)N(C6CCC(=O)NC6=O)C7=O)CC5)CC4)c(OC)c3)cn(C)c(=O)c2C1 (centres unmarked) [Compound D256] | < 10 |
| CNC(=O)N1CCc2c(-c3cc(OC)c(CN4CCN(CCN5CCN(c6ccc7c(c6)C(=O)N(C6CCC(=O)NC6=O)C7=O)CC5)CC4)c(OC)c3)cn(C)c(=O)c2C1 (centres unmarked) [Compound D139] | < 10 |
| CNC(=O)N1Cc2c(c(-c3cc(OC)c(CN4CCN(CCC5CCN(c6ccc7c(c6)C(=O)N(C6CCC(=O)NC6=O)C7=O)CC5)CC4)c(OC)c3)cn(C)c2=O)CC1C (centres unmarked) [Compound D41] | < 10 |

| Structure (SMILES) | IC50 [nM] |
| --- | --- |
| CNC(=O)N1CCc2c(-c3cc(OC)c(CN4CCC(CCN5CCN(c6ccc7nc(C)n(C8CCC(=O)NC8=O)c(=O)c7c6)CC5)CC4)c(OC)c3)cn(C)c(=O)c2C1 (centres unmarked) [Compound D65] | 100 to 1000 |
| CNC(=O)N1CCc2c(-c3cc(OC)c(CN4CC(CN5CCC6(CC5)CN(c5ccc7c(c5)C(=O)N(C5CCC(=O)NC5=O)C7=O)C6)C4)c(OC)c3)cn(C)c(=O)c2C1 (centres unmarked) [Compound D109] | < 10 |
| CNC(=O)N1CCc2c(-c3cc(OC)c(CN4CCN(CCC5CCN(c6ccc7c(c6)C(=O)N(C6CCC(=O)NC6=O)C7=O)CC5)CC4(C)C)c(OC)c3)cn(C)c(=O)c2C1 (centres unmarked) [Compound D102] | < 10 |
| CNC(=O)N1CCc2c(-c3cc(OC)c(CN4CCN(CCC5CCN(c6ccc7c(c6)C(=O)N(C6CCC(=O)NC6=O)C7=O)CC5)C(COC)C4)c(OC)c3)cn(C)c(=O)c2C1 (centres unmarked) [Compound D103] | < 10 |
| COc1cc(-c2cn(C)c(=O)c3c2CCN(C(=O)NCCN2CCC4C(C2)CN4c2ccc4c(c2)C(=O)N(C2CCC(=O)NC2=O)C4=O)C3)cc(OC)c1CN(C)C (centres unmarked) [Compound D187] | 10 to 100 |
| COc1cc(-c2cn(C)c(=O)c3c2CCN(C(=O)NCCCN2CCC4(CC2)CCN(c2ccc5c(c2)C(=O)N(C2CCC(=O)NC2=O)C5=O)C4)C3)cc(OC)c1CN(C)C (centres unmarked) [Compound D236] | 10 to 100 |
| COc1cc(-c2cn(C)c(=O)c3c2CCN(C(=O)NCC2CC4(CCN(CCOc5ccc6c(c5)C(=O)N(C5CCC(=O)NC5=O)C6=O)CC4)C2)C3)cc(OC)c1CN(C)C (centres unmarked) [Compound D267] | 10 to 100 |
| COc1cc(-c2cn(C)c(=O)c3c2CCN(C(=O)NCC2CC24CCN(CCCCN2CCN(c5ccc6c(c5)C(=O)N(C5CCC(=O)NC5=O)C6=O)CC2)CC4)C3)cc(OC)c1CN(C)C (centres unmarked) [Compound D240] | 100 to 1000 |
| CNC(=O)N1CCc2c(-c3cc(F)c(CN4CCC(CCN5CCN(c6ccc7c(c6)C(=O)N(C6CCC(=O)NC6=O)C7=O)CC5)CC4)c(OC)c3)cn(C)c(=O)c2C1 (centres unmarked) [Compound D91] | < 10 |
| COc1cc(-c2cn(C)c(=O)c3c2CCN(C(=O)NCCN2CCC4(CC2)CN(c2ccc5c(c2)C(=O)N(C2CCC(=O)NC2=O)C5=O)C4)C3)cc(OC)c1CN(C)C (centres unmarked) [Compound D212] | 10 to 100 |
| COc1cc(-c2cn(C)c(=O)c3c2CCN(C(=O)NCCCN2CCC4(CCN(c5ccc6c(c5)C(=O)N(C5CCC(=O)NC5=O)C6=O)C4)C2)C3)cc(OC)c1CN(C)C (centres unmarked) [Compound D208] | 10 to 100 |
| CNC(=O)N1CCc2c(-c3cc(OC)c(CN4CC(S(=O)(=O)NCCCOc5cccc6c5C(=O)N(C5CCC(=O)NC5=O)C6=O)C4)c(OC)c3)cn(C)c(=O)c2C1 (centres unmarked) [Compound D280] | 100 to 1000 |
| COc1cc(-c2cn(C)c(=O)c3c2OCCN3)cc(OC)c1CN1CC(CN2CCC3(CC2)CN(c2ccc4c(c2)C(=O)N(C2CCC(=O)NC2=O)C4)C3)C1 (centres unmarked) [Compound D66] | < 10 |
| COc1cc(-c2cn(C)c(=O)c3c2CCN(C(=O)NCC2CC4(CCN(CCCCN5CCN(c6ccc7c(c6)C(=O)N(C6CCC(=O)NC6=O)C7=O)CC5)CC4)O2)C3)cc(OC)c1CN(C)C (centres unmarked) [Compound D193] | ≥ 1000 |
| COc1cc(-c2cn(C)c(=O)c3c2CCN(C(=O)NCCN2CCC4(CCN4c4ccc5c(c4)C(=O)N(C4CCC(=O)NC4=O)C5=O)C2)C3)cc(OC)c1CN(C)C (centres unmarked) [Compound D185] | 100 to 1000 |

same assay, conditions: SYO-1 cells, 6 hours, Table 6A

| Structure (SMILES) | IC50 [nM] |
| --- | --- |
| CNC(=O)N1CCc2c(-c3cc(OC)c(CN(C)CC(=O)NCCOCCOc4cccc5c4C(=O)N(C4CCC(=O)NC4=O)C5=O)c(OC)c3)cn(C)c(=O)c2C1 (centres unmarked) [Compound D13, 5-(4-[[([[2-(2-[[2-(2,6-dioxopiperidin-3-yl)-1,3-dioxoisoindol-4-yl]oxy]ethoxy)ethyl]carbamoyl]methyl)(methyl)amino]methyl]-3,5-dimethoxyphenyl)-N,7-dimethyl-8-oxo-3,4-dihydro-1H-2,7-naphthyridine-2-carboxamide] | > 1000 |
| CNC(=O)N1CCc2c(-c3cc(OC)c(CN4CCN(C(=O)CCCOc5cccc6c5C(=O)N(C5CCC(=O)NC5=O)C6=O)CC4)c(OC)c3)cn(C)c(=O)c2C1 (centres unmarked) [Compound D1, 5-(4-[[4-(4-[[2-(2,6-dioxopiperidin-3-yl)-1,3-dioxoisoindol-4-yl]oxy]butanoyl)piperazin-1-yl]methyl]-3,5-dimethoxyphenyl)-N,7-dimethyl-8-oxo-3,4-dihydro-1H-2,7-naphthyridine-2-carboxamide] | > 10 |
| CNC(=O)N1CCc2c(-c3cc(OC)c(CN4CCC5(CC4)CN(C(=O)CCCCOc4cccc6c4C(=O)N(C4CCC(=O)NC4=O)C6=O)CCO5)c(OC)c3)cn(C)c(=O)c2C1 (centres unmarked) [Compound D4, 5-(4-[[4-(5-[[2-(2,6-dioxopiperidin-3-yl)-1,3-dioxoisoindol-4-yl]oxy]pentanoyl)-1-oxa-4,9-diazaspiro[5.5]undecan-9-yl]methyl]-3,5-dimethoxyphenyl)-N,7-dimethyl-8-oxo-3,4-dihydro-1H-2,7-naphthyridine-2-carboxamide formic acid] | > 10 |

same assay, conditions: SYO-1 cells, 6 hours, Table 6C

| Structure (SMILES) | IC50 [nM] |
| --- | --- |
| [2H]C([2H])([2H])n1cc(-c2cc(OC)c(CN3CCN(CCC4CCN(c5ccc6c(c5)C(=O)N(C5CCC(=O)NC5=O)C6=O)CC4)CC3)c(OC)c2)c2c(c1=O)CN(C(=O)NCC(F)F)CC2 (centres unmarked) [Compound D328] | ≥ 1000 |
| [2H]C([2H])([2H])n1cc(-c2cc(OC)c(CN3[C@H](C)CN(CCC4CCN(c5ccc6c(c5)C(=O)N(C5CCC(=O)NC5=O)C6)CC4)C[C@H]3C)c(OC)c2)c2c(c1=O)CN(C(=O)NC)CC2 (some centres unmarked) [Compound D319] | < 10 |
| [2H]C([2H])([2H])n1cc(-c2cc(OC)c(CN3CCN(CCC4CCN(c5ccc6c(c5)CN(C5CCC(=O)NC5=O)C6=O)CC4)CC3)c(OC)c2)c2c(c1=O)CN(C(=O)NCC(F)F)CC2 (centres unmarked) [Compound D317] | < 10 |
| COc1cc(-c2cn(C)c(=O)c3c2N(C)CC3)cc(OC)c1CN1CC(CN2CCC3(CC2)CN(c2ccc4c(c2)C(=O)N(C2CCC(=O)NC2=O)C4)C3)C1 (centres unmarked) [Compound D352] | ≥ 10 |
